Patent US20220031723A1, “POWDERED FOOD COMPOSITION COMPRISING ERIOCITRIN” (EUROMED, S.A., priority 2020, published 2022)
≈ marks a conversion by molar mass, not a printed value.

How the values were obtained:
[1] = cited from earlier work; for water solubility: in water
[2] = Occurrence of plasma and urine metabolites in volunteers after consuming lemon or orange extract; format: in vivo, human; conditions: human, in vivo
From the text: Through a targeted metabolomic strategy, a total of 17 metabolites were tentatively identified (Table 3). No hesperidin or eriocitrin-derived metabolites were detected in any volunteer at baseline. All the identified metabolites were detected at least in one volunteer, independently of the extract consumed, except for the metabolites M9 (eriodictyol sulfoglucuronide) and M11 (hesperetin sulfoglucuronide), which only were detected after consuming lemon and orange extract, respectively (Table 3). These representative EICs illustrate the metabolites identified in urine (F3 fraction) after consuming lemon (FIG. 3A) and orange (FIG. 3B) extracts, and plasma after consuming lemon (FIG. 3C) and orange (FIG. 3D) extracts. From the 17 metabolites, 16 were detected after consuming lemon extract (except M11), and 15 after consuming orange extract (except M9 and M10 in urine, and M9 and M12 in plasma) (Table 3).

[3] = Urinary excretion of quantified metabolites in collected fractions after extract intake; format: in vivo, human; conditions: mean ± SD; for Metabolite quantified in urine fraction F1: fraction 0 to 4 h; for Metabolite quantified in urine fraction F2: fraction 4 to 8 h; for Metabolite quantified in urine fraction F3: fraction 8 to 10 h; for Metabolite quantified in urine fraction F4: fraction collected at 24 h (10-24 h); for Metabolite quantified in urine, Total F (24 h): sum of fractions F1-F4
Method: Table 4 and Table 5 show the urinary excretion of quantified metabolites at the different fractions collected, i.e., 0-4 h (F1), 4-8 h (F2), 8-10 h (F3), and 10-24 h (F4), after extracts intake.

## C[C@@H]1O[C@@H](OC[C@H]2O[C@@H](Oc3cc(O)c4c(c3)O[C@H](c3ccc(O)c(O)c3)CC4=O)[C@H](O)[C@@H](O)[C@@H]2O)[C@H](O)[C@H](O)[C@H]1O [eriocitrin, Eriocitrin]
[1]
  solubility in water: 4000 micrograms/ml
  water solubility: about 40 mg/ml

## COc1ccc([C@@H]2CC(=O)c3c(O)cc(O[C@@H]4O[C@H](CO[C@@H]5O[C@@H](C)[C@H](O)[C@@H](O)[C@H]5O)[C@@H](O)[C@H](O)[C@H]4O)cc3O2)cc1O [hesperidin, Hesperidin, reference compound]
[1]
  solubility in water: 5 micrograms/ml
  water solubility: 4.9 µg/mL (≈ 8.03 µM)

## COc1ccc(C2CC(=O)c3c(O)cc(O)cc3O2)cc1OS(=O)(=O)O (stereo not drawn) [M14, Hesperetin 3'-O-sulfate]
[2]
  Occurrence Plasma LE (number of volunteers in whom metabolite was detected): 16
  Occurrence Plasma LE (second column so headed; number of volunteers in whom metabolite was detected): 16
  Occurrence Urine LE (number of volunteers in whom metabolite was detected): 16
  Occurrence Urine LE (second column so headed; number of volunteers in whom metabolite was detected): 16
[3]; after consuming lemon extract
  Metabolite quantified in urine fraction F1: 1.9 ± 2.6 μg/mg creatinine
  Metabolite quantified in urine fraction F2: 4.3 ± 4.5 μg/mg creatinine
  Metabolite quantified in urine fraction F3: 3.3 ± 3.1 μg/mg creatinine
  Metabolite quantified in urine fraction F4: 0.7 ± 0.6 μg/mg creatinine
  Metabolite quantified in urine, Total F (24 h): 9.0 ± 9.1 μg/mg creatinine
[3]; after consuming orange extract
  Metabolite quantified in urine fraction F1: 0.1 ± 0.3 μg/mg creatinine
  Metabolite quantified in urine fraction F2: 1.2 ± 3.3 μg/mg creatinine
  Metabolite quantified in urine fraction F3: 1.9 ± 3.1 μg/mg creatinine
  Metabolite quantified in urine fraction F4: 0.6 ± 0.6 μg/mg creatinine
  Metabolite quantified in urine, Total F (24 h): 3.8 ± 7.3 μg/mg creatinine
